US12344610B2, “APOL1 inhibitors and methods of use” (Maze Therapeutics, Inc., priority 2022, dated 2025)

Experiments:
[1] = system: HEK293 cells overexpressing APOL1 G2; experiment: APOL1 G2 HEK293 cell rescue assay (reversal of cell death caused by overexpression of APOL1); format: cell-based; settings: Homo sapiens, HEK293, HEK293 overexpressing APOL1 G2; geometric mean of at least 2 assay runs; † = single assay run
How it was run: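 EC50 is the half-maximal effective concentration for reversing cell death driven by APOL1 G2 overexpression in HEK293 cells. Reported as geometric mean of at least 2 runs on separate days, each run averaging duplicate wells per plate; some values from a single run.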

APOL1 G2 = molecular target: T1, APOL1 G2 (Homo sapiens, UniProt O14791, DEL388-389); experiment: APOL1-mediated calcium transport (calcium influx) assay, HEK T-REx/GCaMP6f/APOL1 G2 K6.3 cells, FLIPR TETRA; format: cell-based; settings: prevention of calcium influx; geometric mean of at least 2 assay runs; † = average of a technical replicate from a single assay run
T1 construct: expressed in transfected cells; host or cells: HEK293 T-REx clonal line stably expressing GCaMP6f (HEK T-REx/GCaMP6f/APOL1 G2 K6.3), doxycycline induced
T1 sequence (O14791 with tags, fused parts or gaps DEL388-389): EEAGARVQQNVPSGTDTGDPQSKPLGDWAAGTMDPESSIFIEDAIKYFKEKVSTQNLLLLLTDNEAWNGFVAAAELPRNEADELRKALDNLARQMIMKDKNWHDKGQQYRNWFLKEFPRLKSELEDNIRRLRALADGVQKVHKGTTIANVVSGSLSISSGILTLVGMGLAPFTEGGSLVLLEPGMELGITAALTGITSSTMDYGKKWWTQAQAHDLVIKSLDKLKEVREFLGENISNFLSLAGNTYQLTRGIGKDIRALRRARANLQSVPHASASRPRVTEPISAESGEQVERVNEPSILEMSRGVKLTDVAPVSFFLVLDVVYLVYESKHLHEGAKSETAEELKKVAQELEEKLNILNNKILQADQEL
How it was run: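 A HEK293 T-REx clone stably expressing GCaMP6f had APOL1 G2 induced with doxycycline (20 ng/mL solution added) for 6 h. Cells were then washed into Ca2+-free Tyrode's buffer (pH 7.4) and preincubated with compounds (duplicate 8-point) for 10 min at room temperature. Ca2+ injection to 5 mM final produced FLIPR GCaMP fluorescence, giving AC50 for influx inhibition (geometric mean, ≥2 runs).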

`CS(=O)(=O)c1ccc(OCCN2CCC3(CC2)C(=O)N(CCO)c2ccc(Br)cc23)cc1` [Compound 24, 5-bromo-1-(2-hydroxyethyl)-1′-[2-(4-methanesulfonylphenoxy)ethyl]-1,2-dihydrospiro[indole-3,4′-piperidin]-2-one] was tested, and the EC50 [1] was 240 nM and the AC50 (APOL1 G2) was 200 nM.

Work on `COCCN1C(=O)C2(CCN(CCOc3ccc(S(C)(=O)=O)cc3)CC2)c2cc(C#N)ccc21` [Compound 25, 1′-[2-(4-methanesulfonylphenoxy)ethyl]-1-(2-methoxyethyl)-2-oxo-1,2-dihydrospiro[indole-3,4′-piperidine]-5-carbonitrile] yielded an EC50 [1] of 1310 nM and an AC50 (APOL1 G2) of 651 nM.

`CS(=O)(=O)c1ccc(OCCN2CCCC3(CC2)C(=O)Nc2ccccc23)cc1` (centres unmarked) [Compound 26, 1-(2-(4-(methylsulfonyl)phenoxy)ethyl)spiro[azepane-4,3′-indolin]-2′-one] showed an EC50 [1] of 1760 nM and an AC50 (APOL1 G2) of 943 nM.

`CN1C(=O)CCc2cc(OCCN3CCC4(CC3)C(=O)Nc3ccc(Cl)cc34)ccc21` [Compound 27, 5-chloro-1′-[2-[(1-methyl-2-oxo-3,4-dihydroquinolin-6-yl)oxy]ethyl]spiro[indoline-3,4′-piperidine]-2-one] was tested, and the EC50 [1] was 62 nM and the AC50 (APOL1 G2) was 510 nM.

In the case of `O=C1CCc2cc(OCCN3CCC4(CC3)C(=O)Nc3ccc(Cl)cc34)cnc2N1CCO` [Compound 192, 5-chloro-1′-(2-{[8-(2-hydroxyethyl)-7-oxo-5,6,7,8-tetrahydro-1,8-naphthyridin-3-yl]oxy}ethyl)-1,2-dihydrospiro[indole-3,4′-piperidin]-2-one], the EC50 [1] is reported as 41.1 nM and the AC50 (APOL1 G2) is reported as 291 nM.

Compound `CC(=O)N(C)CCS(=O)(=O)c1ccc(OCCN2CCC3(CC2)C(=O)Nc2ccc(Cl)cc23)cc1` [Compound 193, N-{2-[4-(2-{5-chloro-2-oxo-1,2-dihydrosiro[indole-3,4′-piperidin]-1′-yl}ethoxy)benzenesulfonyl]ethyl}-N-methylacetamide] has an EC50 [1] of 155 nM and an AC50 (APOL1 G2) of 1270 nM.

In the case of `CS(=O)(=O)C1(c2ccc(OCCN3CCC4(CC3)C(=O)Nc3ccc(Cl)cc34)cc2)COC1` [Compound 195, 5-chloro-1′-{2-[4-(3-methanesulfonyloxetan-3-yl)phenoxy]ethyl}-1,2-dihydrospiro[indole-3,4′-piperidin]-2-one], the EC50 [1] is reported as 39.4 nM and the AC50 (APOL1 G2) is reported as 604 nM.

`O=C1Nc2ccc(Cl)cc2C12CCN(CCOc1ccc3c(c1)CCS3(=O)=O)CC2` [Compound 196, 5-(2-{5-chloro-2-oxo-1,2-dihydrospiro[indole-3,4′-piperidin]-1′-yl}ethoxy)-2,3-dihydro-1λ^6-benzothiophene-1,1-dione] gave an EC50 [1] of 91.9 nM and an AC50 (APOL1 G2) of 696 nM.

For `CS(=O)(=O)c1ccc(OCCN2CCC3(CC2)C(=O)Nc2ccc(Cl)cc23)cc1C(F)F` [Compound 197, 5-chloro-1′-{2-[3-(difluoromethyl)-4-methanesulfonylphenoxy]ethyl}-1,2-dihydrospiro[indole-3,4′-piperidin]-2-one], the EC50 [1] was 32.3 nM and the AC50 (APOL1 G2) was 889 nM.

For `O=C1Nc2ccc(Cl)cc2C12CCN(CCOc1ccc(S(=O)(=O)CCO)cc1)CC2` [Compound 198, 5-chloro-1′-{2-[4-(2-hydroxyethanesulfonyl)phenoxy)ethyl}-1,2-dihydrospiro[indole-3,4′-piperidin]-2-one], the EC50 [1] was 63.1 nM and the AC50 (APOL1 G2) was 631 nM.

`CS(=O)(=O)Nc1ccc(OCCN2CCC3(CC2)C(=O)Nc2ccc(Cl)cc23)cc1` [Compound 214, N-[4-(2-{5-chloro-2-oxo-1,2-dihydrospiro[indole-3,4′-piperidin]-1′-yl}ethoxy)phenyl]methanesulfonamide] gave an EC50 [1] of 79 nM and an AC50 (APOL1 G2) of 355 nM.

`O=C1Nc2ccc(Cl)cc2C12CCN(CCOc1ccc(S(=O)(=O)[C@H]3C[C@H](O)C3)cc1)CC2` [Compound 215, 5-chloro-1′-[2-(4-{[(trans)-3-hydroxycyclobutyl]sulfonyl}phenoxy)ethyl]-1,2-dihydrospiro[indole-3,4′-piperidin]-2-one] was tested, and the EC50 [1] was 79.8 nM and the AC50 (APOL1 G2) was 1130 nM.

`CS(=O)(=O)c1ccc(OCCN2CCC3(CC2)C(=O)Nc2ccc(Cl)cc23)cc1C(O)CO` (centres unmarked) [Compound 216, 5-chloro-1′-{2-[3-(1,2-dihydroxyethyl)-4-methanesulfonylphenoxy]ethyl}-1,2-dihydrospiro[indole-3,4′-piperidin]-2-one] showed an EC50 [1] of 281 nM and an AC50 (APOL1 G2) of 3140 nM.

In the case of `O=C1CCc2cc(OCCN3CCC4(CC3)C(=O)Nc3ccc(Cl)cc34)ccc2N1[C@H]1C[C@H](O)C1` [Compound 224, 5-chloro-1′-[2-({2-oxo-1-[(trans)-3-hydroxycyclobutyl]-1,2,3,4-tetrahydroquinolin-6-yl}oxy)ethyl]-1,2-dihydrospiro[indole-3,4′-piperidin]-2-one], the EC50 [1] is reported as 38.6 nM and the AC50 (APOL1 G2) is reported as 830 nM.

For `O=C1Nc2ccc(Cl)cc2C12CCN(CCOc1ccc(S(=O)(=O)C3(CO)CC3)cc1)CC2` [Compound 225, 5-chloro-1′-[2-(4-{[1-(hydroxymethyl)cyclopropyl]sulfonyl}phenoxy)ethyl]-1,2-dihydrospiro[indole-3,4′-piperidin]-2-one], the EC50 [1] was 32.6 nM and the AC50 (APOL1 G2) was 847 nM.

For `CNC(=O)C1(S(=O)(=O)c2ccc(OCCN3CCC4(CC3)C(=O)Nc3ccc(Cl)cc34)cc2)CC1` [Compound 226, 1-[4-(2-{5-chloro-2-oxo-1,2-dihydrospiro[indole-3,4′-piperidin]-1′-yl}ethoxy)benzenesulfonyl]-N-methylcyclopropane-1-carboxamide], the EC50 [1] was 43 nM and the AC50 (APOL1 G2) was 1080 nM.

`CN(C)C(=O)C1(S(=O)(=O)c2ccc(OCCN3CCC4(CC3)C(=O)Nc3ccc(Cl)cc34)cc2)CC1` [Compound 227, 1-[4-(2-{5-chloro-2-oxo-1,2-dihydrospiro[indole-3,4′-piperidin]-1′-yl}ethoxy)benzenesulfonyl]-N,N-dimethylcyclopropane-1-carboxamide] showed an EC50 [1] of 47 nM and an AC50 (APOL1 G2) of 1110 nM.

With `O=C1Nc2ccc(Cl)cc2C12CCN(CCOc1ccc(S(=O)(=O)C3(C(=O)N4CCC4)CC3)cc1)CC2` [Compound 228, 1′-[2-(4-{[1-(azetidine-1-carbonyl)cyclopropyl]sulfonyl}phenoxy)ethyl]-5-chloro-1,2-dihydrospiro[indole-3,4′-piperidin]-2-one] the EC50 [1] was 101 nM and the AC50 (APOL1 G2) was 1200 nM.

In the case of `CNC(=O)c1ccc(OCCN2CCC3(CC2)C(=O)Nc2ccc(Cl)cc23)cc1F` [Compound 229, 4-(2-{5-chloro-2-oxo-1,2-dihydrospiro[indole-3,4′-piperidin]-1′-yl}ethoxy)-2-fluoro-N-methylbenzamide], the EC50 [1] is reported as 128 nM and the AC50 (APOL1 G2) is reported as 792 nM.

For `CN(C)C(=O)c1ccc(OCCN2CCC3(CC2)C(=O)Nc2ccc(Cl)cc23)cc1F` [Compound 230, 4-(2-{5-chloro-2-oxo-1,2-dihydrospiro[indole-3,4′-piperidin]-1′-yl}ethoxy)-2-fluoro-N,N-dimethylbenzamide], the EC50 [1] was 98.7 nM and the AC50 (APOL1 G2) was 891 nM.

Work on `O=C(c1ccc(OCCN2CCC3(CC2)C(=O)Nc2ccc(Cl)cc23)cc1F)N1CCOCC1` [Compound 231, 5-chloro-1′-{2-[3-fluoro-4-(morpholine-4-carbonyl)phenoxy]ethyl}-1,2-dihydrospiro[indole-3,4′-piperidin]-2-one] yielded an EC50 [1] of 42 nM and an AC50 (APOL1 G2) of 1020 nM.

Work on `O=C(c1ccc(OCCN2CCC3(CC2)C(=O)Nc2ccc(Cl)cc23)cc1F)N1CCS(=O)(=O)CC1` [Compound 232, 4-[4-(2-{5-chloro-2-oxo-1,2-dihydrospiro[indole-3,4′-piperidin]-1′-yl}ethoxy)-2-fluorobenzoyl]-1λ^6-thiomorpholine-1,1-dione] yielded an EC50 [1] of 39.2 nM and an AC50 (APOL1 G2) of 1010 nM.
